In PubChem BioAssay AID1259407 (Chemical Carcinogenesis Research Information System (CCRIS), 2018) one finds mutagenic call data, which are given here for three compounds.

Activity calls are given as the source filed them. The rule behind the calls is not given here.

For the data set, the system named is CCRIS mutagenicity, Ames/micronucleus/aberration tests. The experiment in a line: CCRIS mutagenicity studies.
[1] abbreviates: Test System: AMES SALMONELLA TYPHIMURIUM, Strain/Indicator: TA98, Metabolic Activation: NONE, Method: PREINCUBATION
[2] abbreviates: Test System: AMES SALMONELLA TYPHIMURIUM, Strain/Indicator: TA98, Metabolic Activation: NONE, Method: STANDARD PLATE.
The mark [3] stands for this setting: Test System: AMES SALMONELLA TYPHIMURIUM, Strain/Indicator: TA100, Metabolic Activation: NONE, Method: PREINCUBATION

Turning to `CCN(CC)CCCC(C)Nc1ccnc2cc(Cl)ccc12` (stereo not given), the mutagenic call by setting is: (Test System: AMES SALMONELLA TYPHIMURIUM, Strain/Indicator: TA97, Metabolic Activation: NONE, Method: STANDARD PLATE) “active; positive”; (Test System: AMES SALMONELLA TYPHIMURIUM, Strain/Indicator: TA97A, Metabolic Activation: NONE, Method: STANDARD PLATE) “inactive; negative”; (Test System: AMES SALMONELLA TYPHIMURIUM, Strain/Indicator: TA97A, Metabolic Activation: RAT LIVER S-9, PHENOBARBITAL, Method: STANDARD PLATE) “inactive; negative”; (Test System: AMES SALMONELLA TYPHIMURIUM, Strain/Indicator: TA97A, Metabolic Activation: RAT, LIVER, S-9, AROCLOR 1254, Method: STANDARD PLATE) “inactive; negative”; under setting [1], “inactive; negative”; under setting [2], “active; positive”. The mutagenic call reads like this: (Test System: AMES SALMONELLA TYPHIMURIUM, Strain/Indicator: TA98, Metabolic Activation: RAT, LIVER, S-9, AROCLOR 1254 OR PHENOBARBITOL, Method: STANDARD PLATE) “active; positive”; (Test System: AMES SALMONELLA TYPHIMURIUM, Strain/Indicator: TA98, Metabolic Activation: RAT, LIVER, S-9, PCB, Method: STANDARD PLATE) “inactive; negative”; (Test System: AMES SALMONELLA TYPHIMURIUM, Strain/Indicator: TA98, Metabolic Activation: RAT, LIVER, S-9, Method: PREINCUBATION) “inactive; negative”; under setting [3], “inactive; negative”; (Test System: AMES SALMONELLA TYPHIMURIUM, Strain/Indicator: TA100, Metabolic Activation: RAT LIVER S-9, PHENOBARBITAL, Method: STANDARD PLATE) “inactive; negative”; (Test System: AMES SALMONELLA TYPHIMURIUM, Strain/Indicator: TA100, Metabolic Activation: RAT, LIVER, S-9, AROCLOR 1254 OR PHENOBARBITOL, Method: STANDARD PLATE) “active; positive”. The mutagenic call (Test System: AMES SALMONELLA TYPHIMURIUM, Strain/Indicator: TA100, Metabolic Activation: RAT, LIVER, S-9, PCB, Method: STANDARD PLATE) is “inactive; negative”; the mutagenic call (Test System: AMES SALMONELLA TYPHIMURIUM, Strain/Indicator: TA100, Metabolic Activation: RAT, LIVER, S-9, Method: PREINCUBATION) was “inactive; negative”; the mutagenic call (Test System: AMES SALMONELLA TYPHIMURIUM, Strain/Indicator: TA102, Metabolic Activation: NONE, Method: STANDARD PLATE) is “inactive; negative”; the mutagenic call (Test System: AMES SALMONELLA TYPHIMURIUM, Strain/Indicator: TA102, Metabolic Activation: RAT LIVER S-9, PHENOBARBITAL, Method: STANDARD PLATE) was “inactive; negative”; the mutagenic call (Test System: AMES SALMONELLA TYPHIMURIUM, Strain/Indicator: TA104, Metabolic Activation: NONE, Method: STANDARD PLATE) is “inactive; negative”; the mutagenic call (Test System: AMES SALMONELLA TYPHIMURIUM, Strain/Indicator: TA104, Metabolic Activation: RAT LIVER S-9, PHENOBARBITAL, Method: STANDARD PLATE) is “inactive; negative”. The mutagenic call runs as follows: (Test System: AMES SALMONELLA TYPHIMURIUM, Strain/Indicator: TA1535, Metabolic Activation: NONE, Method: STANDARD PLATE) “inactive; negative”; (Test System: AMES SALMONELLA TYPHIMURIUM, Strain/Indicator: TA1535, Metabolic Activation: RAT, LIVER, S-9, AROCLOR 1254 OR PHENOBARBITOL, Method: STANDARD PLATE) “inactive; negative”; (Test System: AMES SALMONELLA TYPHIMURIUM, Strain/Indicator: TA1537, Metabolic Activation: NONE, Method: MICROFLUCTUATION) “active; positive”; (Test System: AMES SALMONELLA TYPHIMURIUM, Strain/Indicator: TA1537, Metabolic Activation: NONE, Method: STANDARD PLATE) “inactive; negative”; (Test System: AMES SALMONELLA TYPHIMURIUM, Strain/Indicator: TA1537, Metabolic Activation: RAT, LIVER, S-9, AROCLOR 1254, Method: STANDARD PLATE) “inactive; negative”; (Test System: AMES SALMONELLA TYPHIMURIUM, Strain/Indicator: TA1537, Metabolic Activation: RAT, LIVER, S-9, AROCLOR 1254 OR PHENOBARBITOL, Method: STANDARD PLATE) “inactive; negative”. Further, the mutagenic call runs as follows: (Test System: AMES SALMONELLA TYPHIMURIUM, Strain/Indicator: TA1537, Metabolic Activation: RAT, LIVER, S-9, PCB, Method: STANDARD PLATE) “inactive; negative”; (Test System: AMES SALMONELLA TYPHIMURIUM, Strain/Indicator: TA1538, Metabolic Activation: NONE, Method: STANDARD PLATE) “inactive; negative”; (Test System: AMES SALMONELLA TYPHIMURIUM, Strain/Indicator: TA1538, Metabolic Activation: RAT, LIVER, S-9, AROCLOR OR PHENOBARBITOL, Method: STANDARD PLATE) “inactive; negative”; (Test System: AMES SALMONELLA TYPHIMURIUM, Strain/Indicator: TA1538, Metabolic Activation: RAT, LIVER, S-9, PCB, Method: STANDARD PLATE) “inactive; negative”; (Test System: AMES SALMONELLA TYPHIMURIUM, Strain/Indicator: TA1977, Metabolic Activation: NONE, Method: MICROFLUCTUATION) “inactive; negative”; (Test System: E. COLI, Strain/Indicator: DG1669, Metabolic Activation: NONE, Method: STANDARD PLATE) “active; positive”. Also, the mutagenic call (Test System: E. COLI, Strain/Indicator: DG1669, Metabolic Activation: RAT, LIVER, S-9, AROCLOR 1254, Method: STANDARD PLATE) was “active; positive” and the mutagenic call (Test System: E. COLI, Strain/Indicator: WP2 UVRA, Metabolic Activation: RAT, LIVER, S-9, PCB, Method: STANDARD PLATE) was “inactive; negative”.
Consider `CCCCCCCCCCCCCCCCCC(=O)NCCCC[C@@H](NC(=O)CC[C@@H](NC(=O)[C@H](C)NC(=O)[C@@H](C)O[C@H]1[C@H](O)[C@@H](CO)OC(O)[C@@H]1NC(C)=O)C(N)=O)C(=O)O` (stereo not given in full), for which the mutagenic call reads like this: under setting [1], “inactive; negative”; (Test System: AMES SALMONELLA TYPHIMURIUM, Strain/Indicator: TA98, Metabolic Activation: RAT, LIVER, S-9, KC-500, Method: PREINCUBATION) “inactive; negative”; under setting [3], “inactive; negative”; (Test System: AMES SALMONELLA TYPHIMURIUM, Strain/Indicator: TA100, Metabolic Activation: RAT, LIVER, S-9, KC-500, Method: PREINCUBATION) “inactive; negative”; (Test System: AMES SALMONELLA TYPHIMURIUM, Strain/Indicator: TA1535, Metabolic Activation: NONE, Method: PREINCUBATION) “inactive; negative”; (Test System: AMES SALMONELLA TYPHIMURIUM, Strain/Indicator: TA1535, Metabolic Activation: RAT, LIVER, S-9, KC-500, Method: PREINCUBATION) “inactive; negative”. For the same compound, the mutagenic call runs as follows: (Test System: AMES SALMONELLA TYPHIMURIUM, Strain/Indicator: TA1537, Metabolic Activation: NONE, Method: PREINCUBATION) “inactive; negative”; (Test System: AMES SALMONELLA TYPHIMURIUM, Strain/Indicator: TA1537, Metabolic Activation: RAT, LIVER, S-9, KC-500, Method: PREINCUBATION) “inactive; negative”; (Test System: AMES SALMONELLA TYPHIMURIUM, Strain/Indicator: TA1538, Metabolic Activation: NONE, Method: PREINCUBATION) “inactive; negative”; (Test System: AMES SALMONELLA TYPHIMURIUM, Strain/Indicator: TA1538, Metabolic Activation: RAT, LIVER, S-9, KC-500, Method: PREINCUBATION) “inactive; negative”; (Test System: E. COLI, Strain/Indicator: WP2 UVRA, Metabolic Activation: NONE, Method: PREINCUBATION) “inactive; negative”; (Test System: E. COLI, Strain/Indicator: WP2 UVRA, Metabolic Activation: RAT, LIVER, S-9, KC-500, Method: PREINCUBATION) “inactive; negative”.
On to `CC(=O)Nc1ccc2c(=O)c(=O)c3cccc4ccc1c2c43`, for which the mutagenic call is, setting by setting: (Test System: AMES SALMONELLA TYPHIMURIUM, Strain/Indicator: TA98(1,8-DNP6), Metabolic Activation: NONE, Method: STANDARD PLATE) “inactive; negative”; (Test System: AMES SALMONELLA TYPHIMURIUM, Strain/Indicator: TA98(1,8-DNP6), Metabolic Activation: RAT, LIVER, S-9, AROCLOR 1254, Method: STANDARD PLATE) “active; positive”; under setting [2], “inactive; negative”; (Test System: AMES SALMONELLA TYPHIMURIUM, Strain/Indicator: TA98, Metabolic Activation: RAT, LIVER, S-9, AROCLOR 1254, Method: STANDARD PLATE) “active; positive”; (Test System: AMES SALMONELLA TYPHIMURIUM, Strain/Indicator: YG1024, Metabolic Activation: NONE, Method: STANDARD PLATE) “inactive; negative”; (Test System: AMES SALMONELLA TYPHIMURIUM, Strain/Indicator: YG1024, Metabolic Activation: RAT, LIVER, S-9, AROCLOR 1254, Method: STANDARD PLATE) “active; positive”.
